We go through eleven compounds from patent US11701368B2 (EYE CO PTY LTD, priority 2018, dated 2023).

For data set [1], the target named is T1, mineralocorticoid receptor (Homo sapiens, UniProt P08235).
T1 sequence (P08235 1-984): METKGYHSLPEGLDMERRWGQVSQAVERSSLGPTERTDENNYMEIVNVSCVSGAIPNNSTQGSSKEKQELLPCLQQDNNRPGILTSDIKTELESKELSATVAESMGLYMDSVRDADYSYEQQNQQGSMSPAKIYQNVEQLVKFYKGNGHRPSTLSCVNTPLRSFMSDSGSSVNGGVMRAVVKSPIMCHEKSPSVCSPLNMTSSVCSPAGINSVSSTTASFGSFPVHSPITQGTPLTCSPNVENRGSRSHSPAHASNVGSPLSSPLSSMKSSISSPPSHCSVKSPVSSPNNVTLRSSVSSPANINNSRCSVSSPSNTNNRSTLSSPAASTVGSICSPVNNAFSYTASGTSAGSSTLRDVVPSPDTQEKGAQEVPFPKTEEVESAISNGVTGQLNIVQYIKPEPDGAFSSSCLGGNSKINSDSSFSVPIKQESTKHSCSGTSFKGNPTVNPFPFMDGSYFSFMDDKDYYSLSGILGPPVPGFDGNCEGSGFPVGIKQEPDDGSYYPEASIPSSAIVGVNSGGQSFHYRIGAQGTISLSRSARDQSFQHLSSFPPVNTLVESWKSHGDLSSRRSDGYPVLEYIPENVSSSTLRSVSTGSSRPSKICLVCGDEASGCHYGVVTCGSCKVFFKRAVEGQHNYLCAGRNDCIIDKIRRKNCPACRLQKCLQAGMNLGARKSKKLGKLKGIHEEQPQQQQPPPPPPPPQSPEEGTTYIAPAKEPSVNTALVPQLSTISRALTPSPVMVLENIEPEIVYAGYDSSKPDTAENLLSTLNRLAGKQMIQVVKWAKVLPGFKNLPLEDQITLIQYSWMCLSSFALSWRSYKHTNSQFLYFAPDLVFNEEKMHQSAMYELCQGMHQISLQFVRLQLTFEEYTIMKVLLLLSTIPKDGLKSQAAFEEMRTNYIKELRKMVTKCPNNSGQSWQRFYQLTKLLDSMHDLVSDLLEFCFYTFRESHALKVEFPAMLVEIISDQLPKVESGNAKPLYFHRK
Briefly: Mineralocorticoid receptor activity (MR potency) of corticosterones. The following applies: relative potency, hydrocortisone (cortisol) = 1.

A further data set deals with T2, glucocorticoid receptor (Homo sapiens, UniProt P04150).
T2 sequence (P04150 1-777): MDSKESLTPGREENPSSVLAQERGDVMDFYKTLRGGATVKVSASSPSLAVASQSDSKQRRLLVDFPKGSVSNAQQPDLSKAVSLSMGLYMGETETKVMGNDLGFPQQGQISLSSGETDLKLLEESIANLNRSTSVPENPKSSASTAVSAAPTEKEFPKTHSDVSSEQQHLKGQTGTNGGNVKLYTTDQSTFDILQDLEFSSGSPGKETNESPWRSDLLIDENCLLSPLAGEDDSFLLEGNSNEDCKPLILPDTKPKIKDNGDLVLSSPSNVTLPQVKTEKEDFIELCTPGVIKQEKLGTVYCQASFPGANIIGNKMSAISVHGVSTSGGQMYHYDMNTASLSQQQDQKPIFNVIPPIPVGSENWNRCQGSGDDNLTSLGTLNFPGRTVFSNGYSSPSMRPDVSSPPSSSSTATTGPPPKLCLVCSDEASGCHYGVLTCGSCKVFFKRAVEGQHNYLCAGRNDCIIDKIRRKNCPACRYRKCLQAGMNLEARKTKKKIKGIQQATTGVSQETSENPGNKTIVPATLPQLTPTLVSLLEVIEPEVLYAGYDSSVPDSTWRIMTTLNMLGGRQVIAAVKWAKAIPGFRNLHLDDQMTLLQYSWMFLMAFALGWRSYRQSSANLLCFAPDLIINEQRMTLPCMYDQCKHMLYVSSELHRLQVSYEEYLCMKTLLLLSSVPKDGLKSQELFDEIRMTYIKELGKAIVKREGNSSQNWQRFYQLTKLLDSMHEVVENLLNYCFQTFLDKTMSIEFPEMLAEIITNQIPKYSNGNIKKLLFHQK
Put plainly: Glucocorticoid receptor activity (GR potency) of corticosterones. The following applies: relative potency, hydrocortisone (cortisol) = 1.

Data set [2] is described as follows: Duration of action (t1/2). To be noted: in vivo; read-out: Duration of action (t1/2 in hours) (converted).
A short description of another data set: physchem. The text has this:
FIG. 1: Solubility enhancement for MR compounds and TA in saline with addition of hydroxy propyl β-cyclodextrin (data are mean±sd, n=3). Top: FLU and TA; Bottom: 11-DC; DCS and DCSA.

Data set [3] is described as follows: Stability of drug aqueous solutions under autoclave conditions. To be noted: saturated solution, 121° C./30 min. The class given is physicochemical. The text has this:
Preferably, the study materials are sterile, at least to a large degree for preclinical studies. In the absence of a facility for complete aseptic manufacture, in order to sterilize the suspensions there are two possible approaches foreseen—autoclaving the final suspensions in ‘vial’, or gamma sterilization.

Data set [4] is described as follows: Batch production: Av drug content per vial (RGA40/1). The following applies: batch after freeze drying and gamma sterilization; specification 20.0 ± 2.0 mg. Type of data set: physicochemical.
Data set [5] is described as follows: Particle sizing by laser light scattering. Type of data set: physicochemical. To be noted: as received powder.
Data set [6] in a line: Batch production: particle size (RGA40/2). Type of data set: physicochemical.
A short description of data set [7]: Batch production: pH (RGA40/3). The class given is physicochemical. To be noted: specification 6.0-8.0.
Data set [8] is described as follows: Drug storage stability in saline (accelerated stability trial). To be noted: saturated solution in saline, 60° C. From the text:
Consequently it was felt to be important to characterise the drug stability over time in aqueous solution as an indicator of likely issues with drug content and/or degradation products in the suspensions on storage.

In data set [9] the test system is New Zealand albino rabbit eyes. To be noted: cited from earlier work.

A value given as a limit tells only on which side of the number the result lay.

Take `C[C@]12CCC(=O)C=C1CC[C@@H]1[C@@H]2[C@@H](O)C[C@]2(C=O)[C@@H](C(=O)CO)CC[C@@H]12` [Aldosterone]: the MR potency in [1] is reported as 200-1000. This compound also registered a GR potency on glucocorticoid receptor of 0.3.

For `C[C@]12C=CC(=O)C=C1CC[C@@H]1[C@@H]2C(=O)C[C@@]2(C)[C@H]1CC[C@]2(O)C(=O)CO` [Prednisone], the MR potency in data set [1] worked out at 0.8. In addition, in [2], the half-life is 16 to 36 h.

Regarding `CC1(C)O[C@@H]2C[C@H]3[C@@H]4CCC5=CC(=O)C=C[C@]5(C)[C@@]4(F)[C@@H](O)C[C@]3(C)[C@]2(C(=O)CO)O1` [TA, triamcinolone acetonide], in “physchem”, the “absolute solubility (compared with FLU)” value was “lower overall” and the “aqueous solubility relative to the other compounds” value is “very low”. In addition, the “stability of aqueous solution to autoclave conditions” value (shortened to “stability of aqueous solution”) in data set [3] is reported as “moderately stable”.

`C[C@]12CC[C@H]3[C@@H](CCC4=CC(=O)CC[C@@]43C)[C@@H]1CC[C@@H]2C(=O)CO` [DCS, Deoxycorticosterone]: the “Av Drug Content per vial” value in data set [4] is “Av Drug RGA40/1 20.0 ± 2.0 mg 18.5 ± 0.7 1 Nov. 2006 Passed”. For the same compound, in data set [5], the “D(v, 0.5)” value is recorded as 22 microns and the “D(v, 0.9)” value came to 80 microns. Besides, in the data set “physchem”, the “solubility relative to 11-DC and DCSA” value is recorded as 4-8 fold. Further, the concentration in solution in “physchem” (saline with 50 mM HP-βCD) was more than 8000 µg/mL. Besides, the “stability of aqueous solution” value in [3] is given as “stable”. Besides, the “Particle Size D(0.5)” value in data set [6] (specification <20) was “Particle RGA40/2 D(0.5) = <20 12.7 3 Nov. 2006 Passed”. The “Particle Size D(0.9)” value in data set [6] (specification <30) is “Size D(0.9) = <30 30.0”. Besides, the pH entry in data set [7] was “pH RGA40/3 6.0-8.0 7.0 3 Nov. 2006 Passed”.

Regarding `C[C@]12CCC(=O)C=C1CC[C@@H]1[C@@H]2[C@@H](O)C[C@@]2(C)[C@H]1CC[C@]2(O)C(=O)CO` [Hydrocortisone (cortisol), Hydrocortisone], the MR potency in data set [1] worked out at 1. Moreover, in [2], the half-life was 8 h. The GR potency at glucocorticoid receptor came out at 1.

In turn, `C[C@]12CCC(=O)C=C1CC[C@@H]1[C@@H]2C(=O)C[C@@]2(C)[C@H]1CC[C@]2(O)C(=O)CO` [Cortisone] gave an MR potency in data set [1] of 0.8. Besides, at glucocorticoid receptor, the GR potency is 0.8.

Consider `C[C@]12CCC(=O)C=C1CC[C@H]1[C@@H]3CC[C@](O)(C(=O)CO)[C@@]3(C)C[C@H](O)[C@@]12F` [FLU, fludrocortisone], for which, in [3], the “stability of aqueous solution” value is given as “partly degraded”. For the same compound, the “drug concentration remaining, % of original concentration” value in [8] (after two weeks) turned out to be 20%. Moreover, the “stability in saline over time” value in data set [8] (up to 14 days) is “marked instability”. Further, the “ERG in the other groups / other eyes” value in data set [9] (intravitreal 400 μg, 1 mg, 2 mg/0.1 ml and remaining eyes, two weeks after injection) was “no significant decrease in ERG”. Also, the “eyes with decreases in ERG” value in data set [9] (intravitreal 4 mg/0.1 ml, two weeks after injection) was “One”. The “eyes with vitreous hemorrhage” value in data set [9] (intravitreal 4 mg/0.1 ml) was “one”. In data set [9] (rabbit, in vivo), the “signs of retinal toxicity on slit-lamp examination, indirect ophthalmoscopy or light microscopy” value is “no signs of retinal toxicity”.

On to `C[C@]12C=CC(=O)C=C1CC[C@H]1[C@@H]3C[C@@H](O)[C@](O)(C(=O)CO)[C@@]3(C)C[C@H](O)[C@@]12F` [Triamcinolone], for which, in data set [1], the MR potency is 0. Moreover, in data set [2], the half-life is 12 to 36 h. Also, the GR potency at glucocorticoid receptor stood at 5.

Turning to `C[C@H]1C[C@@H]2[C@H]([C@@H](O)C[C@@]3(C)[C@H]2CC[C@]3(O)C(=O)CO)[C@@]2(C)C=CC(=O)C=C12` [Methylprednisolone], in data set [2], the half-life was 18 to 40 h.

For `C[C@]12C=CC(=O)C=C1CC[C@@H]1[C@@H]2[C@@H](O)C[C@@]2(C)[C@H]1CC[C@]2(O)C(=O)CO` [Prednisolone], the MR potency in data set [1] was found to be 0.8. In addition, in data set [2], the half-life is 16 to 36 h. The compound also registered a GR potency on glucocorticoid receptor of 4.

For `C[C@H]1C[C@H]2[C@@H]3CCC4=CC(=O)C=C[C@]4(C)[C@@]3(Cl)[C@@H](O)C[C@]2(C)[C@@]1(O)C(=O)CO` [Beclometasone], the GR potency at glucocorticoid receptor was 8 puffs 4 times a day;.
